According to patent US9006442B2, “Cannabinoid receptor modulators” (Lupin Limited, priority 2011, dated 2015):

The compounds below were run against hCB2 (Homo sapiens, UniProt P34972) (assay: cAMP determination in functional hCB2-CHO stable cells (HTRF)). Conditions: not given.
Format: cell-based
Protocol: In-Vitro Assay Method for Determination of cAMP in Functional hCB2—CHO Stable Cells:
Recombinant CHO-hCB2 cells (procured from Perkin Elmer Inc. USA) were propagated and maintained in Ham's F-12 complete medium containing 10% heat inactivated FBS (Sigma.UK) and 1× penstrep. For assay, 0.1×10^6 to 1.0×10^6 CHO-hCB2 cells were seeded in T-25 flask and grown to mid-log phase in culture media without antibiotics for 2-3 days. […] The test is performed in 96^1/2 area black well plates. For agonist testing, 20 μl cells/well were mixed with 20 μl of sample and 10 μl of forskolin (with final concentration of 10 μM) and incubated for 20 to 40 min at room temperature in incubator. The plate was then processed for the cAMP determination using cAMP Femto-2 HTRF kit (Cisbio, Germany) as per the manual.
The concentration of compound required to stimulate a half-maximal response (EC50) was determined using the GraphPad Prism software (version 5).

hCB2, sequence (P34972 whole entry): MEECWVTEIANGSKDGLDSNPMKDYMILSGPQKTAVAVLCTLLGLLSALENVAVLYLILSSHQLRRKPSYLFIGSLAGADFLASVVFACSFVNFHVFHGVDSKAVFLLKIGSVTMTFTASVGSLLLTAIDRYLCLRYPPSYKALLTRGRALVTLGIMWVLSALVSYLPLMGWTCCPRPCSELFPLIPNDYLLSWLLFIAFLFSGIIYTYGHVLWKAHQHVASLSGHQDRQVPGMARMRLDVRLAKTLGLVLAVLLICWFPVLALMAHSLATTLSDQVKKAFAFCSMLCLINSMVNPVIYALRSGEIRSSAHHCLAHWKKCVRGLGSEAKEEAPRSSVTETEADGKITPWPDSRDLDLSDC

Compound | EC50
CCN(C)C(=O)c1cnc(Nc2cccc(Cl)c2C)c2cccc(Cl)c12 [compound 357, 5-Chloro-1-((3-chloro-2-methylphenyl)amino)-N-ethyl-N-methyl isoquinolin-4-carboxamide] | < 10 nM
Cc1c(Cl)cccc1Nc1ncc(C(=O)N(C)C)c2c(Cl)cccc12 [compound 332, 5-Chloro-1-((3-chloro-2-methylphenyl)amino)-N,N-dimethyl isoquinolin-4-carboxamide] | < 10 nM
Cc1c(Cl)cccc1Nc1ncc(C(=O)N2CC3CC(C2)O3)c2c(C)cccc12 [Example-65, 6-Oxa-3-azabicyclo[3.1.1]heptan-3-yl(1-((3-chloro-2-methylphenyl)amino)-5-methylisoquinolin-4-yl)methanone] | < 10 nM
Cc1cccc2c(Nc3cccc(F)c3F)ccc(C(=O)N3CC4CC(C3)O4)c12 [Example-172, 6-Oxa-3-azabicyclo[3.1.1]heptan-3-yl(4-((2,3-difluorophenyl)amino)-8-methylnaphthalen-1-yl)methanone] | < 10 nM
CCN(CC)C(=O)c1cnc(Nc2cccc(C(F)(F)F)c2C)c2cccc(C)c12 [compound 279, N,N-Diethyl-5-methyl-1-((2-methyl-3-(trifluoromethyl)phenyl)amino) isoquinolin-4-carboxamide] | < 10 nM
Cc1cc(Nc2ncc(C(=O)N3CCCCC3)c3c(C)cccc23)ccc1F [Example-94, (1-((4-Fluoro-3-methylphenyl)amino)-5-methylisoquinolin-4-yl)(piperidin-1-yl)methanone] | < 10 nM
Cc1cccc2c(Nc3cccc(Cl)c3)ncc(C(=O)N3CC4CC4C3)c12 (stereo not drawn) [Example-75, 3-Azabicyclo[3.1.0]hexan-3-yl(1-((3-chlorophenyl)amino)-5-methylisoquinolin-4-yl)methanone] | < 10 nM
Cc1c(Cl)cccc1Nc1ncc(C(=O)N(C)C(C)C)c2c(Cl)cccc12 [compound 384, 5-Chloro-1-((3-chloro-2-methylphenyl)amino)-N-isopropyl-N-methylisoquinolin-4-carboxamide] | 10 to 1000 nM
CCN(CC)C(=O)c1cnc(Nc2cccc(C(F)(F)F)c2C)c2cccc(Cl)c12 [compound 325, 5-Chloro-N-N-diethyl-1-((2-methyl-3-(trifluoromethyl)phenyl)amino) isoquinolin-4-carboxamide] | < 10 nM
Cc1cccc2c(Nc3ccc(F)c(C(F)(F)F)c3)ncc(C(=O)N3CCCCC3)c12 [Example-27, (1-((4-Fluoro-3-(trifluoromethyl)phenyl)amino)-5-methylisoquinolin-4-yl)(piperidin-1-yl)methanone] | < 10 nM
Cc1ccc(Nc2ccc(C(=O)N3CCOCC3)c3c(C)cccc23)cc1F [Example-152, (4-((3-Fluoro-4-methylphenyl)amino)-8-methylnaphthalen-1-yl)(morpholino)methanone] | < 10 nM
Cc1ccc(Nc2ncc(C(=O)N3CCCCC3)c3c(C)cccc23)cc1Cl [Example-92, (1-((3-Chloro-4-methylphenyl)amino)-5-methylisoquinolin-4-yl)(piperidin-1-yl)methanone] | < 10 nM

Same assay, conditions: CHO-hCB2 cells, cAMP, forskolin 10 μM, agonist testing; read-out: EC50 Range

EC50 | Compound
< 10 nM | O=C(c1cnc(Nc2cccc(F)c2F)c2cccc(C3CC3)c12)N1CCOCC1 [Example-116]
< 10 nM | Cc1c(Nc2ccc(C(=O)N(C)C)c3c(C)cccc23)cccc1C(F)(F)F [compound 427, N,N,8-Trimethyl-4-((2-methyl-3-(trifluoromethyl)phenyl)amino)-1-naphthamide]
< 10 nM | Cc1cccc2c(Nc3cc(F)cc(F)c3)ncc(C(=O)N3CCOCC3)c12 [Example-3, (1-((3,5-Difluorophenyl)amino)-5-methylisoquinolin-4-yl)(morpholino)methanone]
< 10 nM | CCc1cccc2c(Nc3cccc(C(F)(F)F)c3F)ncc(C(=O)N3CCCCC3)c12 [Example-129, (5-Ethyl-1-((2-Fluoro-3-(trifluoromethyl)phenyl)amino)isoquinolin-4-yl)(piperidin-1-yl)methanone]
< 10 nM | Cc1cccc2c(Nc3ccc(F)cc3F)ncc(C(=O)N3CCCCC3)c12 [Example-29, (1-((2,4-Difluorophenyl)amino)-5-methylisoquinolin-4-yl)(piperidin-1-yl)methanone]
< 10 nM | Cc1ccc(Cl)cc1Nc1ncc(C(=O)N2CCOCC2)c2c(C)cccc12 [Example-88, (1-((5-Chloro-2-methylphenyl)amino)-5-methylisoquinolin-4-yl)(morpholino)methanone]
< 10 nM | CCN(C)C(=O)c1cnc(Nc2cccc(F)c2Cl)c2cccc(Cl)c12 [compound 336, 5-Chloro-1-((2-chloro-3-fluorophenyl)amino)-N-ethyl-N-methyl isoquinolin-4-carboxamide]
< 10 nM | Cc1cccc2c(Nc3cc(F)ccc3F)ncc(C(=O)N3CCCCC3)c12 [Example-34, (1-((2,5-Difluorophenyl)amino)-5-methylisoquinolin-4-yl)(piperidin-1-yl)methanone]
10 to 1000 nM | Cc1cccc2c(Nc3ccc(F)cc3F)ncc(C(=O)N3CCOCC3)c12 [Example-7, (1-((2,4-Difluorophenyl)amino)-5-methylisoquinolin-4-yl)(morpholino)methanone]
< 10 nM | Cc1cccc2c(Nc3cccc(F)c3F)ccc(C(=O)N3CC4CC4C3)c12 (stereo not drawn) [Example-166, 3-Azabicyclo[3.1.0]hexan-3-yl(4-((2,3-difluorophenyl)amino)-8-methylnaphthalen-1-yl)methanone]
< 10 nM | Cc1cc(Nc2ncc(C(=O)N3CCOCC3)c3c(C)cccc23)ccc1F [Example-85, (1-((4-Fluoro-3-methylphenyl)amino)-5-methylisoquinolin-4-yl)(morpholino)methanone]
10 to 1000 nM | CCN(C)C(=O)c1cnc(Nc2c(F)ccc(F)c2F)c2cccc(Cl)c12 [compound 355, 5-Chloro-N-ethyl-N-methyl-1-((2,3,6-trifluorophenyl)amino) isoquinolin-4-carboxamide]
< 10 nM | COC(=O)c1cccc(Nc2ccc(C(=O)N3CCOCC3)c3c(C)cccc23)c1C [compound 410, Methyl 2-methyl-3-((5-methyl-4-(morpholin-4-carbonyl)naphthalen-1-yl)amino)benzoate]
10 to 1000 nM | O=C(c1ccc(Nc2cc(F)cc(F)c2)c2ccccc12)N1CCOCC1 [Example-187, (4-((3,5-Difluorophenyl)amino)naphthalen-1-yl)(morpholino)methanone]
< 10 nM | CCN(C)C(=O)c1ccc(Nc2cccc(C)c2C)c2cccc(C)c12 [compound 453, 4-((2,3-Dimethylphenyl)amino)-N-ethyl-N,8-dimethyl-1-naphthamide]
< 10 nM | CN(C)C(=O)c1cnc(Nc2cccc(F)c2C(F)(F)F)c2cccc(Cl)c12 [compound 333, 5-Chloro-1-((3-fluoro-2-(trifluoromethyl)phenyl)amino)-N,N-di methylisoquinolin-4-carboxamide]
< 10 nM | Cc1c(F)cccc1Nc1ccc(C(=O)N2CC3CC3C2)c2c(C)cccc12 (stereo not drawn) [Example-170, 3-Azabicyclo[3.1.0]hexan-3-yl(4-((3-fluoro-2-methylphenyl)amino)-8-methylnaphthalen-1-yl)methanone]
< 10 nM | CCN(C)C(=O)c1cnc(Nc2cccc(C(F)(F)F)c2F)c2cccc(Cl)c12 [compound 334, 5-Chloro-N-ethyl-1-((2-fluoro-3-(trifluoromethyl)phenyl)amino)-N-methylisoquinolin-4-carboxamide]
